# Biological target: human DHODH (Homo sapiens, UniProt Q02127)
# Test: Inhibition assay of DHODH activity
# Format: biochemical
# Conditions: recombinant human DHODH; 50 μM decyclo ubichinone, 100 μM dihydroorotate, 60 μM 2,6-dichloroindophenol; pH 8.0, 30° C.
# Sequence of human DHODH (Q02127 whole entry): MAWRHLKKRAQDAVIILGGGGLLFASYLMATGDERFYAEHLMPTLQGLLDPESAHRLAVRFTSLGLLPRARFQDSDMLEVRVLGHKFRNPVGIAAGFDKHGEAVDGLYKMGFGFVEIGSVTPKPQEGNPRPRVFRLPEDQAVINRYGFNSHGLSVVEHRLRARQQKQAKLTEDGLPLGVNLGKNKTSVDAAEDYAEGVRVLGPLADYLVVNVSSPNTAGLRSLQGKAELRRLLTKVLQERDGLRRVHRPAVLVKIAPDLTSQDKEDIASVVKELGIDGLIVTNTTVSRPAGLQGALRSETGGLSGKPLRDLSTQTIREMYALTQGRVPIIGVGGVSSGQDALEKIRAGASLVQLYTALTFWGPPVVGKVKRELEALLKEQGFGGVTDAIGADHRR
row,SMILES,IC50
1,"COc1cccc(-c2ccc(NC(=O)C3=C(C(=O)O)C(O)CC3)c(F)c2)c1 (centres unmarked) [Example 18, 2-(3-Fluoro-3′-methoxy-biphenyl-4-ylcarbamoyl)-5-hydroxy-cyclopent-1-enecarboxylic acid]",< 1 µM
2,"O=C(O)C1=C(C(=O)Nc2c(F)cc(-c3ccccc3F)cc2F)CCC1O (centres unmarked) [Example 12, 5-Hydroxy-2-(3,5,2′-trifluoro-biphenyl-4-ylcarbamoyl)-cyclopent-1-enecarboxylic acid]",< 1 µM

# From US7071355B2, “Compounds as anti-inflammatory, immunomodulatory and anti-proliferatory agents” (4 SC AG, priority 2002, dated 2006)
